{"source": "patent EP0063525A1", "about": "“Dibenzazepine tetracyclic derivatives, process for their preparation and pharmaceutical compositions containing them” (CENTRE NATIONAL DE LA RECHERCHE SCIENTIFIQUE (CNRS), priority 1981, dated 1982)", "key": {"Souris [1]": {"test_system": "Souris", "assay": "antireserpine activity: reserpine hypothermia", "assay_type": "in vivo", "conditions": "réserpine 5 mg/kg i.p. 17 h before; for change in vivo at 50 mg/kg / change in vivo at 150 mg/kg: ip, 4 h, read-out: % d'augmentation par rapport aux témoins", "experimental": "On note ensuite les températures témoins (réserpine), puis les températures 1, 2, 3 et 4 heures après l'administration des produits étudiés.\nLes animaux sont répartis en lots de 4 animaux et reçoivent par voie intrapéritonéale la réserpine à une dose de 5 mg/kg. 17 heures après cette injection, on mesure la température corporelle de l'animal à l'aide d'une sonde thermocouple introduite dans le rectum; chaque lot reçoit ensuite la substance par voie intrapéritonéale. Le lot témoin reçoit la même quantité de solvant et par la même voie. La température corporelle est ensuite mesurée toutes les heures pendant 4 heures.\nLes résultats sont rassemblés dans un tableau récapitulatif-où sont indiqués : • - la température moyenne pour chaque lot relevée 17 heures après l'injection de la réserpine, • - la moyenne des variations de température pour chaque lot relevées 1,2, 3 et 4 heures après l'injection de la substance étudiée, • - la somme des variations de températures pendant 4 heures, • - le pourcentage d'augmentation de la température pour chaque produit par rapport aux témoins."}, "Souris [2]": {"test_system": "Souris", "assay": "tetrabenazine hypothermia", "assay_type": "in vivo", "conditions": "product i.p. 80 mg/kg 30 min before tétrabénazine 32 mg/kg i.v.", "experimental": "(§1) Ce test permet de révéler également une activité antidépressive avec l'avantage d'une lecture plus rapide qu'avec la réserpine.\nLes produits sont injectés 30 minutes avant l'administration de tétrabénazine.\nLes températures sont relevées aux temps : 0, 30 minutes, 60 minutes, 90 minutes et 120 minutes.\n(§2) Les souris sont réparties par lots de 5.\nLes températures sont relevées avant l'injection de tétrabénazine, 30 minutes, 60 minutes, 90 minutes et 120 minutes après.\n(§3) Le lot témoin comprend 20 souris."}, "[3]": {"assay": "acute toxicity in the mouse, intraperitoneal", "assay_type": "in vivo, Souris", "conditions": "mouse, in vivo, ip, voie intrapéritonéale; for LD50 at 48 h: souris femelles, read-out: DL 50; for mortality at 48 h: read-out: Mortalité %", "excerpt": "(§4) Les produits ont été administrés par voie intrapéritonéale à des souris femelles dont le poids variait de 18 à 30 g.\n(§5) Les animaux injectés ont été maintenus dans une salle thermostatée, nourris et abreuvés à volonté.\n(§6) La mortalité a été relevée à 1 heure, 4 heures, 24 heures et 48 heures."}, "souris femelles": {"test_system": "souris femelles", "assay": "acute toxicity in the mouse, intraperitoneal", "assay_type": "in vivo", "conditions": "voie intrapéritonéale, dead mice of the group", "excerpt": "as §4, §5, §6"}, "Souris [4]": {"test_system": "Souris", "assay": "tetrabenazine ptosis", "assay_type": "in vivo", "conditions": "product i.p. 100 mg/kg 30 min before tétrabénazine 32 mg/kg i.v.", "experimental": "as §1, §2\nLe ptosis est noté avant l'injection de tétrabénazine, 30 minutes, 60 minutes, 90 minutes et 120 minutes après.\nOn a adopté la notation suivante : • - 0 : pour un oeil ouvert, • - 1 : pour un oeil fermé au quart, • - 2 : pour un oeil fermé à moitié, • - 3 : pour un oeil fermé aux trois-quarts, • - 4 : pour un oeil fermé complètement.\nas §3"}}, "note": "Read-outs that look alike come from different tables or passages of the source."}
{"molecule": "O=C(O)CCCCCCNC1c2ccccc2CCc2ccccc21", "note": "[Aminep-tine, amineptine, reference compound]", "values": [{"measurement": "variation de température T=1h", "setting": "Souris [1]; product i.p. 80 mg/kg", "value": "+1,5"}, {"measurement": "variation de température T= 2h", "setting": "Souris [1]; product i.p. 80 mg/kg", "value": "+1,6"}, {"measurement": "variation de température T=3h", "setting": "Souris [1]; product i.p. 80 mg/kg", "value": "+1"}, {"measurement": "variation de température T=4h", "setting": "Souris [1]; product i.p. 80 mg/kg", "value": "+0,1"}, {"measurement": "inhibition in vivo at 80 mg/kg", "setting": "Souris [2]; ip, 2 h, hypothermie, read-out: % de protection", "value": 51, "unit": "%"}, {"measurement": "Température après tétrabénazine 30 minutes", "setting": "Souris [2]", "value": "-1,8"}, {"measurement": "Température après tétrabénazine 60 minutes", "setting": "Souris [2]", "value": "-1,8"}, {"measurement": "Température après tétrabénazine 90 minutes", "setting": "Souris [2]", "value": "-1,1"}, {"measurement": "Température après tétrabénazine 120 minutes", "setting": "Souris [2]", "value": "-0,2"}, {"measurement": "Température après tétrabénazine Total", "setting": "Souris [2]", "value": "-4,2"}]}
{"molecule": "CN(C)CCN1c2ccccc2-c2onc(-c3ccccc3)c2-c2ccccc21", "note": "[compound 17, (β-diméthylaminoéthyl)-8 phényl-3 (dibenzo [b,f]isoxazolo [4,5-d]) 8H azépine]", "values": [{"measurement": "change in vivo at 50 mg/kg", "setting": "Souris [1]; product i.p. 50 mg/kg", "value": 0, "unit": "%"}, {"measurement": "change in vivo at 150 mg/kg", "setting": "Souris [1]; product i.p. 150 mg/kg", "value": 300, "unit": "%"}, {"measurement": "LD50 at 48 h", "setting": "[3]", "value": 175, "unit": "mg/kg"}, {"measurement": "mortality at 48 h", "setting": "[3]; 50 mg/kg", "value": 0, "unit": "%"}, {"measurement": "mortality at 48 h", "setting": "[3]; 100 mg/kg", "value": 0, "unit": "%"}, {"measurement": "mortality at 48 h", "setting": "[3]; 150 mg/kg", "value": 0, "unit": "%"}, {"measurement": "mortality at 48 h", "setting": "[3]; 200 mg/kg", "value": 100, "unit": "%"}, {"measurement": "mortality at 48 h", "setting": "[3]; 250 mg/kg", "value": 100, "unit": "%"}, {"measurement": "Mortalité en 1 heure", "setting": "souris femelles; 50 mg/kg", "value": 0}, {"measurement": "Mortalité en 48 h.", "setting": "souris femelles; 50 mg/kg", "value": 0}, {"measurement": "Mortalité en 1 heure", "setting": "souris femelles; 100 mg/kg", "value": 0}, {"measurement": "Mortalité en 48 h.", "setting": "souris femelles; 100 mg/kg", "value": 0}, {"measurement": "Mortalité en 1 heure", "setting": "souris femelles; 150 mg/kg", "value": 0}, {"measurement": "Mortalité en 48 h.", "setting": "souris femelles; 150 mg/kg", "value": 0}, {"measurement": "Mortalité en 1 heure", "setting": "souris femelles; 200 mg/kg", "value": 5}, {"measurement": "Mortalité en 48 h.", "setting": "souris femelles; 200 mg/kg", "value": 5}, {"measurement": "Mortalité en 1 heure", "setting": "souris femelles; 250 mg/kg", "value": 4}, {"measurement": "Mortalité en 48 h.", "setting": "souris femelles; 250 mg/kg", "value": 5}]}
{"molecule": "CC(CN(C)C)CN1c2ccccc2-c2onc(-c3ccccc3)c2-c2ccccc21", "note": "(stereo not drawn) [compound 19, (méthyl-2 diméthylamino-3 propyl)-8 phényl-,3 (dibenzo [b ,f]isoxazolo [3 ,4-d]) 8H azépine]", "values": [{"measurement": "change in vivo at 150 mg/kg", "setting": "Souris [1]; product i.p. 150 mg/kg", "value": 110, "unit": "%"}, {"measurement": "variation de température T=1h", "setting": "Souris [1]; product i.p. 150 mg/kg", "value": "+3,4"}, {"measurement": "variation de température T= 2h", "setting": "Souris [1]; product i.p. 150 mg/kg", "value": "+0,7"}, {"measurement": "variation de température T=3h", "setting": "Souris [1]; product i.p. 150 mg/kg", "value": "+0,7"}, {"measurement": "variation de température T=4h", "setting": "Souris [1]; product i.p. 150 mg/kg", "value": "-0,6"}, {"measurement": "LD50 at 48 h", "setting": "[3]", "value": 175, "unit": "mg/kg"}, {"measurement": "mortality at 48 h", "setting": "[3]; 50 mg/kg", "value": 0, "unit": "%"}, {"measurement": "mortality at 48 h", "setting": "[3]; 100 mg/kg", "value": 0, "unit": "%"}, {"measurement": "mortality at 48 h", "setting": "[3]; 250 mg/kg", "value": 60, "unit": "%"}, {"measurement": "mortality at 48 h", "setting": "[3]; 500 mg/kg", "value": 100, "unit": "%"}, {"measurement": "Mortalité en 1 heure", "setting": "souris femelles; 50 mg/kg", "value": 0}, {"measurement": "Mortalité en 48 h.", "setting": "souris femelles; 50 mg/kg", "value": 0}, {"measurement": "Mortalité en 1 heure", "setting": "souris femelles; 100 mg/kg", "value": 0}, {"measurement": "Mortalité en 48 h.", "setting": "souris femelles; 100 mg/kg", "value": 0}, {"measurement": "Mortalité en 1 heure", "setting": "souris femelles; 250 mg/kg", "value": 1}, {"measurement": "Mortalité en 48 h.", "setting": "souris femelles; 250 mg/kg", "value": 3}, {"measurement": "Mortalité en 1 heure", "setting": "souris femelles; 500 mg/kg", "value": 5}, {"measurement": "Mortalité en 48 h.", "setting": "souris femelles; 500 mg/kg", "value": 5}, {"measurement": "inhibition in vivo at 100 mg/kg", "setting": "Souris [4]; ip, 2 h, ptosis, read-out: % de protection", "value": 16, "unit": "%"}, {"measurement": "Ptosis Total", "setting": "Souris [4]", "value": "25,3"}, {"measurement": "Ptosis 30 minutes", "setting": "Souris [4]; score 0-4 per eye", "value": 5}, {"measurement": "Ptosis 60 minutes", "setting": "Souris [4]; score 0-4 per eye", "value": "6,3"}, {"measurement": "Ptosis 90 minutes", "setting": "Souris [4]; score 0-4 per eye", "value": "6,7"}, {"measurement": "Ptosis 120 minutes", "setting": "Souris [4]; score 0-4 per eye", "value": "7,3"}]}
{"molecule": "CN(C)CCCN1c2ccccc2C=Cc2ccccc21", "note": "[compound 21, (α-diméthylaminopropyl)-5 dibenzo [b,f] 5H azépine, reference compound]", "values": [{"measurement": "change in vivo at 50 mg/kg", "setting": "Souris [1]; product i.p. 50 mg/kg", "value": 30, "unit": "%"}, {"measurement": "variation de température T= 2h", "setting": "Souris [1]; product i.p. 50 mg/kg", "value": "-0,1"}, {"measurement": "variation de température T=3h", "setting": "Souris [1]; product i.p. 50 mg/kg", "value": "+0,2"}, {"measurement": "variation de température T=4h", "setting": "Souris [1]; product i.p. 50 mg/kg", "value": "+0,5"}, {"measurement": "LD50 at 48 h", "setting": "[3]", "value": 100, "unit": "mg/kg"}, {"measurement": "mortality at 48 h", "setting": "[3]; 50 mg/kg", "value": 0, "unit": "%"}, {"measurement": "mortality at 48 h", "setting": "[3]; 75 mg/kg", "value": 0, "unit": "%"}, {"measurement": "mortality at 48 h", "setting": "[3]; 125 mg/kg", "value": 100, "unit": "%"}, {"measurement": "mortality at 48 h", "setting": "[3]; 250 mg/kg", "value": 100, "unit": "%"}, {"measurement": "Mortalité en 1 heure", "setting": "souris femelles; 50 mg/kg", "value": 0}, {"measurement": "Mortalité en 48 h.", "setting": "souris femelles; 50 mg/kg", "value": 0}, {"measurement": "Mortalité en 1 heure", "setting": "souris femelles; 75 mg/kg", "value": 0}, {"measurement": "Mortalité en 48 h.", "setting": "souris femelles; 75 mg/kg", "value": 0}, {"measurement": "Mortalité en 1 heure", "setting": "souris femelles; 125 mg/kg", "value": 5}, {"measurement": "Mortalité en 48 h.", "setting": "souris femelles; 125 mg/kg", "value": 5}, {"measurement": "Mortalité en 1 heure", "setting": "souris femelles; 250 mg/kg", "value": 5}, {"measurement": "Mortalité en 48 h.", "setting": "souris femelles; 250 mg/kg", "value": 5}]}
